Laboratory results published in US20250204528A1, “USE OF 2-AMINO-3-INDOLYL BUTYRIC ACID OR 3-METHYLPYRROLIDINE-2-CARBOXYLIC ACID AS PLANT IMMUNITY ELICITOR” (NANJING TIANNONG BIOTECHNOLOGY CO., LTD, priority 2021, published 2025).

Tests used:
ryegrass = test: Ryegrass under high temperature stress; type: in vivo; set-up: Heat damage index: scale not given here; conditions: for Heat damage index: 45° C. 12 h, recovery 7 d; for Heat damage index of the ryegrass decreased: vs control group
Description: 2-amino-3-indolyl butyric acid was dissolved in distilled water and gradiently diluted with distilled water to obtain solutions of 1 nm, 10 nm, 100 nm and 1,000 nm. A blank control was additionally set. Meanwhile, 0.02% Tween 20 was added as a surfactant. Each concentration was set to 4 replicates while a room temperature blank control was set. Ryegrass seeds were weighed at 0.8 g per pot, sown in a pot with the diameter of 8.5 cm and planted in a greenhouse at 25° C. with the humidity of 60%-70% and the light intensity of 200 μmolm^−2s^−1 (12 h light/12 h dark). After 7 d of growth, the ryegrass was treated by spraying the 2-amino-3-indolyl butyric acid solution on the leaf surfaces twice for 24 h. 24 h after the second spraying, the ryegrass was transferred to an illumination incubator at 45° C. for a high temperature stress treatment for 12 h. The plants were taken out and transferred to the greenhouse at 25° C. for recovery for 7 d. The damage conditions of the plants were observed and counted, and the heat damage grades were calculated. The heat damage grading standard was shown in table 8 and a calculation formula of the heat damage index was as follows.

[1] = tested on: tea trees (Baiye 1 cutting seedlings); test: Tea tree under low temperature stress; type: in vivo; conditions: for Cold damage index (%): 24 h at −4° C., recovery 3 d; for PIABS: after 24 h at −4° C.; for Cold damage index reduced by / PIABS of the tea leaves improved by: vs control
Description: The test tea trees were Baiye 1 cutting seedlings.
The tea seedlings with consistent growth vigor were selected to be transplanted into a plastic pot with the diameter of 18 cm and placed in a greenhouse at 25° C. and with the humidity of 60%-70% to be adapted for growing for about one week for the experiment. Concentrations at 0 nm, 1 nm, 10 nm, 100 nm and 1,000 nm were set in the experiment. Meanwhile, 0.02% Tween 20 was added as a surfactant. The spraying treatment was the same as that of the ryegrass in example 1. A low temperature stress was performed for 24 h at −4° C. The tea seedlings after the stress was finished were taken out and subjected to a dark treatment at normal temperature for 30 min. The chlorophyll fluorescences of leaves at the tops of the tea seedlings were measured by using the plant efficiency Handy-PEA. Then the tea seedlings were placed in the greenhouse at 25° C. for recovery for 3 d. The cold damage conditions were observed, counted and graded. The cold damage index counting and grading standard was shown in table 13 and a calculation formula was as follows.

[2] = tested on: tomato spotted wilt viruses; test: Induction of tobacco against infection by tomato spotted wilt viruses; type: in vivo, Nicotiana benthamiana; conditions: for Disease index / Relative immune effect (%): tobacco; for Disease indexes of the tobacco / Relative immune effects: each treatment in concentration range 0.1-10 nm; for Content of virus proteins: relative protein content in leaves after 3 d, Western blot/Image J
Description: Tomato spotted wilt viruses were taken from Yunnan province of China. An initial virus source was placed in a refrigerator at −80° C. for storage and activated by inoculation on Nicotiana benthamiana leaves by using a friction inoculation. Virus plasmids were extracted for transformation of Escherichia coli competent cells. The bacteria were coated on a resistant plate for culture, single colonies were selected for PCR screening, and positive colonies were selected for sequencing and subsequent plasmid extraction. The plasmids with normal sequencing were added into Agrobacterium competent cells and subjected to the Agrobacterium transformation by using an electric shock method. The transformed Agrobacterium liquid was coated on a screening plate with corresponding resistance and cultured at 28±1° C. for 48 h. Single colonies of the Agrobacterium on the transformation plate were selected, placed in a 5-mL LB medium containing the corresponding resistance and cultured overnight at 28° C. and 180 rpm. The bacteria were collected by centrifugation at 6,000 rpm for 2 min, suspended in an Agrobacterium treatment buffer (10 mM MgCl2, 10 mM MES and 10 μM acetosyringone) to enable the OD600 value of the suspension to be 0.5, and treated in a dark place at 28° C. for 3 h for later use.
2-amino-3-indolyl butyric acid was dissolved in distilled water and gradiently diluted with distilled water to obtain solutions of 0 nM, 0.1 nM, 1 nM and 10 nM. Nicotiana benthamiana seeds were sown in a small pot, illuminated at 22±1° C. for 12 h/12 h, and cultured for 5 weeks. Healthy tobacco plants (preferably 8-10 leaves) were selected and sprayed with the 2-amino-3-indolyl butyric acid solutions at the above concentrations on stems and leaves. The treatment was repeated once every 24 h and a total of two treatments was performed. After 24 h, the Agrobacterium liquid with the uniform concentration was extracted by using a 1 mL injector, an injection port of the injector was directly pressed on a small hole on the back of the tobacco leaves, and the bacterium liquid was slowly injected to infiltrate the whole leaves. The infiltrated tobacco was transferred to the environment at 22±1° C. and with 12 h/12 h illumination for culturing. The tobacco was observed and recorded by a microscope after 3 d. Meanwhile, the sample was taken, the gray levels of protein bands were analyzed by using Western blot combined with an Image J software, and the relative protein content of the viruses in the leaves was determined. The disease condition of the tobacco leaves was observed after 15 d and the disease index was recorded according to GB/T23222-2008 Grade and investigation method of tobacco diseases and insect pests. The formula was as follows: […]
Grading standard of diseases caused by tomato spotted wilt viruses (grading and investigation by taking plants as units): • grade 0: the whole plants were disease-free; • grade 1: the veins of interior leaves were obvious or leaves were slightly spotted, and the diseased plants were not obviously dwarfed; • grade 3: one third leaves were spotted but not deformed, or the plants were dwarfed to the heights of more than three fourths of those of normal plants; • grade 5: one third to one half leaves were spotted, or a few leaves were deformed, or main veins were blackened, or the plants were dwarfed to the heights of two thirds to three fourths of those of the normal plants; • grade 7: one half to two thirds leaves were spotted or deformed, or a few main lateral veins were necrotic, or the plants were dwarfed to the heights of one half to two thirds of those of the normal plants; and • grade 9: the leaves of the whole plates were spotted, severely deformed or necrotic, or the diseased plants were dwarfed to the heights of […] of those of the normal plants.

[3] = 10 nm, as printed with % in summary
[4] = treatment concentration 0.1 nm, 15 d after inoculation
[5] = treatment concentration 1 nm, 15 d after inoculation

Row | SMILES | Heat damage index (ryegrass; 1 nm) | Heat damage index (ryegrass; 10 nm) | Heat damage index (ryegrass; 100 nm) | Heat damage index (ryegrass; 1,000 nm) | Heat damage index of the ryegrass decreased (ryegrass; 1,000 nm) | Cold damage index (%) ([1]; 1 nm) | PIABS ([1]; 1 nm) | Cold damage index (%) ([1]; 10 nm) | PIABS ([1]; 10 nm) | Cold damage index (%) ([1]; 100 nm) | PIABS ([1]; 100 nm) | Cold damage index (%) ([1]; 1,000 nm) | PIABS ([1]; 1,000 nm) | Cold damage index reduced by ([1]; 1,000 nm) | PIABS of the tea leaves improved by ([1]; 1,000 nm) | Disease index [2, 3] | Disease indexes of the tobacco [2] | Relative immune effects [2] | Content of virus proteins ([2]; treatment concentration 0.1 nm) | Relative immune effect (%) ([2]; treatment concentration 0.1 nm) | further results
1 | CC(c1c[nH]c2ccccc12)C(N)C(=O)O (centres unmarked) | 61 | 57 | 43 | 25 | 65% | 52% | 26.3 ± 0.04 | 45% | 30.10 ± 1.70c | 35% | 36.51 ± 3.14ab | 28% | 39.36 ± 2.15a | 40% | 52% | 30.42% | lower than 50 | ≥ 45% | 0.41 ± 0.005b | 46.68% | Disease index [2, 4]: 49.70 ± 1.51b; Content of virus proteins ([2]; treatment concentration 1 nm): 0.32 ± 0.014c; Relative immune effect (%) ([2]; treatment concentration 1 nm): 56.11%; Disease index [2, 5]: 40.91 ± 3.14c; Relative immune effect (%) ([2]; treatment concentration 10 nm): 67.36%
2 | CC1CCNC1C(=O)O (centres unmarked) [3-methylpyrrolidine-2-carboxylic acid] | 57 | 50 | 38 | 20 | 68% | 47% | 23.01 ± 0.02 | 43% | 29.65 ± 1.81c | 34% | 35.01 ± 0.27b | 27% | 41.07 ± 0.31a | 48% | 138% | 21.44% | lower than 50 | ≥ 50% | 0.37 ± 0.003b | 50.84% | Disease index [2, 4]: 41.31 ± 0.34b; Content of virus proteins ([2]; treatment concentration 1 nm): 0.24 ± 0.001c; Relative immune effect (%) ([2]; treatment concentration 1 nm): 68.43%; Disease index [2, 5]: 27.89 ± 2.16c; Relative immune effect (%) ([2]; treatment concentration 10 nm): 75.73%
